Test results: the NIST ThermoML archive (doi:10.1016/j.jct.2014.01.002)

Experiment: excess molar enthalpy (molar enthalpy of mixing); xn = mol fraction of the nth substance listed
Details: 298.15 K, 99 kPa, Liquid, Calvet calorimetry

C1CCCCC1 [cyclohexane] + CCCCCC
Details | excess molar enthalpy [kcal/mol]
x1 = 0.0524 | 0.00813
x1 = 0.1136 | 0.017
x1 = 0.1603 | 0.0232
x1 = 0.2014 | 0.0282
x1 = 0.2485 | 0.0335
x1 = 0.3022 | 0.0392
x1 = 0.3647 | 0.0442
x1 = 0.4379 | 0.049
x1 = 0.4819 | 0.0509
x1 = 0.5388 | 0.0526
x1 = 0.5621 | 0.0528
x1 = 0.6166 | 0.0526
x1 = 0.6576 | 0.0516
x1 = 0.7177 | 0.0483
x1 = 0.7702 | 0.0435
x1 = 0.8085 | 0.0392
x1 = 0.8623 | 0.0318
x1 = 0.9276 | 0.0191

CCCCCO [pentan-1-ol] + CCCCCC
Details | excess molar enthalpy [kcal/mol]
x1 = 0.0241 | 0.0686
x1 = 0.0501 | 0.0848
x1 = 0.0573 | 0.0887
x1 = 0.1085 | 0.103
x1 = 0.1504 | 0.112
x1 = 0.1912 | 0.121
x1 = 0.2341 | 0.127
x1 = 0.2905 | 0.129
x1 = 0.3433 | 0.13
x1 = 0.3934 | 0.128
x1 = 0.4452 | 0.125
x1 = 0.5771 | 0.0982
x1 = 0.5794 | 0.0985
x1 = 0.6531 | 0.0798
x1 = 0.6979 | 0.0672
x1 = 0.7463 | 0.0535
x1 = 0.803 | 0.0368
x1 = 0.9021 | 0.0151
